Results as given in patent publication US9458414B2, “Cleaning, surfactant, and personal care compositions” (SEGETIS, INC., priority 2012, dated 2016).

Legend:
Format in all cases: physicochemical
[1] = Coupling of water and octanoic acid by hydrotropes (amount producing a single phase)
Protocol: Hydrotropes were added to a two-component mixture of octanoic acid and deionized (DI) water to find the amount that produced a single phase from the two separate phases of water and octanoic acid.
The percent hydrotrope required to compatibilize phases (and the resulting percent octanoic acid) were calculated and the results are shown in Table 4 as well as FIG. 1.

[2] = Coupling of water and soy methyl ester by hydrotropes
Protocol: Hydrotropes were added to a two-component mixture of soy methyl ester and DI water to find the amount that produced a single phase from the two separate phases of water and soy methyl ester. The percent hydrotrope required to compatibilize the phases was calculated.

[3] = Coupling of water and castor oil by hydrotropes
[4] = ratio of water:octanoic acid 10:90
[5] = ratio of water:octanoic acid 30:70
[6] = ratio of water:octanoic acid 50:50
[7] = ratio of water:octanoic acid 70:30
[8] = ratio of water:octanoic acid 90:10
[9] = water:octanoic acid 10:90 (DI water 0.5 g, octanoic acid 4.5 g)
[10] = water:octanoic acid 30:70 (DI water 1.5 g, octanoic acid 3.5 g)
[11] = water:octanoic acid 50:50 (DI water 5.0 g, octanoic acid 5.0 g)
[12] = water:octanoic acid 70:30 (DI water 3.5 g, octanoic acid 1.5 g)
[13] = water:octanoic acid 90:10 (DI water 4.5 g, octanoic acid 0.5 g)
[14] = ratio of water:soy methyl esters 10:90
[15] = ratio of water:soy methyl esters 30:70
[16] = ratio of water:soy methyl esters 50:50
[17] = ratio of water:soy methyl esters 70:30
[18] = ratio of water:soy methyl esters 90:10
[19] = ratio of water to castor oil 10:90
[20] = ratio of water to castor oil 30:70
[21] = ratio of water to castor oil 50:50
[22] = ratio of water to castor oil 70:30
[23] = ratio of water to castor oil 90:10
[24] = all ratios 10:90 to 90:10, measured levels up to >95%

Compound | Wt % Hydrotrope required to compatibilize phases [1, 4] [%] | Wt % Octanoic Acid (resulting, at compatibilization) [1, 4] [%] | Wt % Hydrotrope required to compatibilize phases [1, 5] [%] | Wt % Octanoic Acid (resulting, at compatibilization) [1, 5] [%] | Wt % Hydrotrope required to compatibilize phases [1, 6] [%] | Wt % Octanoic Acid (resulting, at compatibilization) [1, 6] [%] | Wt % Hydrotrope required to compatibilize phases [1, 7] [%] | Wt % Octanoic Acid (resulting, at compatibilization) [1, 7] [%] | Wt % Hydrotrope required to compatibilize phases [1, 8] [%] | Wt % Octanoic Acid (resulting, at compatibilization) [1, 8] [%] | Amount of hydrotrope that produced a single phase [1, 9] [grams] | Amount of hydrotrope that produced a single phase [1, 10] [grams] | Amount of hydrotrope that produced a single phase [1, 11] [grams] | Amount of hydrotrope that produced a single phase [1, 12] [grams] | Amount of hydrotrope that produced a single phase [1, 13] [grams] | Wt % Hydrotrope required to compatibilize the phases [2, 14] [%] | Wt % Soy Methyl Esters (at compatibilization) [2, 14] [%] | Wt % Hydrotrope required to compatibilize the phases [2, 15] [%] | Wt % Soy Methyl Esters (at compatibilization) [2, 15] [%] | Wt % Hydrotrope required to compatibilize the phases [2, 16] [%] | further results
COC(C)COC(C)CO (centres unmarked) [DPM, dipropylene glycol methyl ether] | 30 | 63 | 47 | 37 | 51 | 25 | 48 | 16 | 43 | 6 | 2.14 | 4.52 | 10.34 | 4.66 | 3.7 | 48 | 47 | 63 | 28 | 74 | Wt % Soy Methyl Esters (at compatibilization) [2, 16]: 13%; Wt % Hydrotrope required to compatibilize the phases [2, 17]: 78%; Wt % Soy Methyl Esters (at compatibilization) [2, 17]: 5%; Wt % Hydrotrope required to compatibilize the phases [2, 18]: 78%; Wt % Soy Methyl Esters (at compatibilization) [2, 18]: 2%; Wt % Castor oil (at compatibilization) [3, 19]: 40%; Wt % Hydrotrope required to compatibilize phases [3, 19]: 56%; Wt % Castor oil (at compatibilization) [3, 20]: 26%; Wt % Hydrotrope required to compatibilize phases [3, 20]: 65%; Wt % Castor oil (at compatibilization) [3, 21]: 13%; Wt % Hydrotrope required to compatibilize phases [3, 21]: 74%; Wt % Castor oil (at compatibilization) [3, 22]: 5%; Wt % Hydrotrope required to compatibilize phases [3, 22]: 79%; Wt % Castor oil (at compatibilization) [3, 23]: 2%; Wt % Hydrotrope required to compatibilize phases [3, 23]: 81%
COCC(C)O (centres unmarked) [PM, propylene glycol methyl ether] | 18 | 74 | 38 | 43 | 42 | 29 | 42 | 17 | 41 | 6 | 1.09 | 3.12 | 3.62 | 3.68 | 3.44 | 51 | 44 | 67 | 25 | 77 | Wt % Soy Methyl Esters (at compatibilization) [2, 16]: 11%; Wt % Hydrotrope required to compatibilize the phases [2, 17]: 81%; Wt % Soy Methyl Esters (at compatibilization) [2, 17]: 5%; Wt % Hydrotrope required to compatibilize the phases [2, 18]: 77%; Wt % Soy Methyl Esters (at compatibilization) [2, 18]: 2%; Wt % Castor oil (at compatibilization) [3, 19]: 36%; Wt % Hydrotrope required to compatibilize phases [3, 19]: 61%; Wt % Castor oil (at compatibilization) [3, 20]: 26%; Wt % Hydrotrope required to compatibilize phases [3, 20]: 65%; Wt % Castor oil (at compatibilization) [3, 21]: 12%; Wt % Hydrotrope required to compatibilize phases [3, 21]: 76%; Wt % Castor oil (at compatibilization) [3, 22]: 5%; Wt % Hydrotrope required to compatibilize phases [3, 22]: 81%; Wt % Castor oil (at compatibilization) [3, 23]: 2%; Wt % Hydrotrope required to compatibilize phases [3, 23]: 83%
CCO [ethanol] | 18 | 74 | 37 | 44 | 39 | 31 | 37 | 19 | 36 | 6 | 1.12 | 2.95 | 3.14 | 2.97 | 2.87 | 54 | 41 | 74 | 18 | 78 | Wt % Soy Methyl Esters (at compatibilization) [2, 16]: 11%; Wt % Hydrotrope required to compatibilize the phases [2, 17]: 80%; Wt % Soy Methyl Esters (at compatibilization) [2, 17]: 6%; Wt % Hydrotrope required to compatibilize the phases [2, 18]: 77%; Wt % Soy Methyl Esters (at compatibilization) [2, 18]: 2%; Wt % Castor oil (at compatibilization) [3, 19]: 40%; Wt % Hydrotrope required to compatibilize phases [3, 19]: 55%; Wt % Castor oil (at compatibilization) [3, 20]: 22%; Wt % Hydrotrope required to compatibilize phases [3, 20]: 69%; Wt % Castor oil (at compatibilization) [3, 21]: 10%; Wt % Hydrotrope required to compatibilize phases [3, 21]: 79%; Wt % Castor oil (at compatibilization) [3, 22]: 5%; Wt % Hydrotrope required to compatibilize phases [3, 22]: 82%; Wt % Castor oil (at compatibilization) [3, 23]: 2%; Wt % Hydrotrope required to compatibilize phases [3, 23]: 84%
Sodium xylene-sulfonate [Sodium xylene-sulfonate (SXS) (40%)] | 13 | 61 | 16 | 43 | 17 | 29 | 17 | 18 | 16 | 6 | 2.32 | 3.23 | 7.4 | 3.55 | 3.33 | – | – | – | – | – | Compatibilization of water and soy methyl esters [2, 24]: *The sodium xylenesulfonate did not compatibilize at any measured level (up to >95%).; Compatibilization of water and castor oil [3, 24]: *The sodium xylenesulfonate did not compatibilize at any measured level (up to >95%).
